Patent US8252832B2, “Kinesin inhibitors as cancer therapeutics” (Novartis AG, priority 2007, dated 2012)
Read-outs that look alike come from different tables or passages of the source.

Legend:
Assay in all cases: CellTiter-Glo, NCI60 panel
Type in all cases: cell-based, human
HCT-15 = conditions: Colon; for GI50: Homo sapiens
Source text: (§1) Identification of tumor types that are the most sensitive to the KSP inhibitors of the present invention can be accomplished using an unbiased approach that uses several cell-based assays. The assays chosen were as follows: • CellTiter-Glo®. This is an assay designed to measure ATP concentration in a cell culture, and can be correlated to cell number. Briefly CellTiter-Glo® (Promega Corporation) is a homogeneous method using the single CellTiter-Glo® reagent to detect ATP wherein ATP in the assay drives the activity of a thermostable luciferase to create a luminescent signal which can then be measured and correlated with the number of viable cells. Briefly, for adherent cells, 1,000 to 5,000 cells/well were plated in 96-well plates (100 μl/well) and let to adhere for 24 hours before being treated with drug. For non-adherent cells, 1,000 to 10,000 cells/well were plated in 96-well plates (100 μl/well) and immediately treated with drug. Drug dilutions were prepared in DMSO at 1000 times the final concentration. These dilutions were then diluted 1/100 in growth media before being added to the cells (11 μl/well) to achieve the desired final concentration. After 48 h in a 37° C. tissue culture incubator, the plates were processed for the CellTiter-Glo®assay according to the manufacturer's instructions. Protocol for a 72 hour cell proliferation assay: The 72 hour assay was performed the same way as the 48 hour assay except for the following modifications: For adherent cells, 500 to 5,000 cells/well were plated in 96-well plates (90 μl/well cell growth media) and left to adhere for 24 hours before being treated with drug. For non-adherent cells, 1,000 to 10,000 cells/well were plated in 96-well plates (90 μl/well cell growth media) and immediately treated with drug. Data values presented represent the concentration of test compound required for a 50% reduction in growth. • LDH release. The Cytotoxicity Detection KitPLUS (LDH) assay (Roche Diagnostics, Manheim, Germany) measures the amount of LDH released in the media by dying cells; LDH catalyzes the conversion of lactate into pyruvate. The enzymatic reaction is coupled to a chemical reaction that uses a tetrazolium salt to form a formazan that is red and can be detected by its absorbance at 490 nm. This assay measures the amount of cell death after drug treatment. Cells were plated at 10,000 cells/well in 96-well plates (100 μl/well). Adherent cells were let to adhere for 24 hours before being treated with drug, whereas non-adherent cells were immediately treated with drug. Drug dilutions were prepared in DMSO at 1000 times the final concentration. These dilutions were then diluted 1/100 in growth media before being added to the cells (11 μl/well) to achieve the desired final concentration. After 48 h in a 37° C. tissue culture incubator, the plates were processed for the Cytotoxicity Detection KitPLUS (LDH) assay according to the manufacturer's instructions. The media only values were subtracted from all the data points before analysis. Data values presented correspond to the compound concentration wherein LDH output is at half maximal level. • Caspase-Glo® 3/7. The Caspase-Glo® 3/7 Assay (Promega Corporation) is a homogeneous luminescent assay that measures caspase-3/7 activities. The assay provides a proluminescent caspase-3/7 DEVD-aminoluciferin substrate and a thermostable luciferase in a reagent optimized for caspase-3/7 activity, luciferase activity and cell lysis. Adding the single Caspase-Glo® 3/7 Reagent results in cell lysis, followed by caspase cleavage of the substrate. This liberates free aminoluciferin, which is consumed by the luciferase, generating a luminescent signal. The signal is proportional to caspase-3/7 activity. Data values presented correspond to the compound concentration wherein caspase 3/7 activity is at half maximal level. […]

T-47D = conditions: Breast; for GI50: Homo sapiens, T47D
Source text: as §1

HCT-116 = conditions: Colon; for GI50: Homo sapiens
Source text: as §1

COLO 205 = conditions: Colon; for GI50: Homo sapiens
Source text: as §1

HT29 = conditions: for GI50: Homo sapiens, HT-29, Colon
Source text: as §1

[1] = GI50 in nM, read-out: Log(GI50) (converted)

**Q.** For `CC(C)(C)[C@H](c1nc(-c2cc(F)ccc2F)cn1Cc1ccccc1)N(CC[C@H](N)CF)C(=O)CO` [Compound IIa], which “Differential vs mean Log(GI50)” value (HCT-15) is on record?
**A.** The value was 0.754.

**Q.** What about the GI50 (HCT-15; [1]) of the same compound?
**A.** The GI50 was 0.378 nM.

**Q.** And the GI50 (HCT-15; read-out: GI50)?
**A.** Its GI50 is 0.378 nM.

**Q.** What about the “Differential vs mean Log(GI50)” value (T-47D) of the same compound?
**A.** The value was −0.669.

**Q.** And the GI50 (T-47D; [1])?
**A.** Its GI50 is 10 nM.

**Q.** And the GI50 (T-47D; read-out: GI50)?
**A.** The GI50 was 10 nM.

**Q.** What about the “Differential vs mean Log(GI50)” value (HCT-116) of the same compound?
**A.** Its value is 1.191.

**Q.** What about the GI50 (HCT-116; [1]) of the same compound?
**A.** Its GI50 is 0.138 nM.

**Q.** And the GI50 (HCT-116; read-out: GI50)?
**A.** Its GI50 is 0.138 nM.

**Q.** And the “Differential vs mean Log(GI50)” value (COLO 205)?
**A.** The value was −0.669.

**Q.** And the GI50 (COLO 205; [1])?
**A.** The GI50 was 10 nM.

**Q.** And the GI50 (COLO 205; read-out: GI50)?
**A.** The GI50 was 10 nM.

**Q.** And the “Differential vs mean Log(GI50)” value (HT29; Colon)?
**A.** The value was −0.669.

**Q.** And the GI50 (HT29; [1])?
**A.** Its GI50 is 10 nM.

**Q.** What about the GI50 (HT29; read-out: GI50) of the same compound?
**A.** The GI50 was 10 nM.
